These results are taken from patent US8466167B2, “Compounds and compositions as TLR activity modulators” (IRM LLC, priority 2008, dated 2013).

Each structure is given as a SMILES string.

For the first assay, the target named is T1, human TLR7 (Homo sapiens, UniProt Q9NYK1).
T1 construct: expressed in transfected cells; host or cells: HEK 293
T1 sequence (Q9NYK1 27-1049): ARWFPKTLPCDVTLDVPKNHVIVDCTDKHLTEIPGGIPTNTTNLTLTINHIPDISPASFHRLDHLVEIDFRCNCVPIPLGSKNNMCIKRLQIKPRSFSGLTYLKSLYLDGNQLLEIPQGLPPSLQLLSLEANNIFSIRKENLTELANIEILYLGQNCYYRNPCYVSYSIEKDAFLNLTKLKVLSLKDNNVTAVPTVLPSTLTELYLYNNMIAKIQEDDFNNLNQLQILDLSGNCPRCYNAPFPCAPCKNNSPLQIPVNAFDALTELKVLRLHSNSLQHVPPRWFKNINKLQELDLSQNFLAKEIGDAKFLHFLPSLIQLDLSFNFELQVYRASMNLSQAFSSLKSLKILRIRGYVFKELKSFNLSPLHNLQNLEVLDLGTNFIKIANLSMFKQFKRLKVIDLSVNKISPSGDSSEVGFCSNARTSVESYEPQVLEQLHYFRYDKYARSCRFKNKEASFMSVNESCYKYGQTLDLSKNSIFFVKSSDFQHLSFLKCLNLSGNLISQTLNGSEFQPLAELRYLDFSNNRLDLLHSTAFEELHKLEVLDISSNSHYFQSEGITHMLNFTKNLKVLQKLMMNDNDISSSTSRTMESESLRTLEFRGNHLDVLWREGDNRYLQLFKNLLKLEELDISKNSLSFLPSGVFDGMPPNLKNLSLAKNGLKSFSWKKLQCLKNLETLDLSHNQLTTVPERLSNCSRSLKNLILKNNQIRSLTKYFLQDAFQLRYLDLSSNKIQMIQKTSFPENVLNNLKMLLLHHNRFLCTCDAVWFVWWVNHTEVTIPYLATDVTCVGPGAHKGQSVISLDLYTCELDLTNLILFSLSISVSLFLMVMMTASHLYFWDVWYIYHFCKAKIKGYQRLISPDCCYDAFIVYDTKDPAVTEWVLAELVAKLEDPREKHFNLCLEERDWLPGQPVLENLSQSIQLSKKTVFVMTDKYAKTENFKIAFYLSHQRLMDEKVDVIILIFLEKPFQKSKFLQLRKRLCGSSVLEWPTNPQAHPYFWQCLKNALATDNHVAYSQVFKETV
The experiment in a line: Reporter gene assay, HEK293-TLR7 (NF-kB-driven luciferase). In kind it is cell-based. The settings on record: HEK293-TLR7; read-out: EC50 in HEK293-TLR7 assay. The method, then: (§1) Human embryonic kidney 293 (HEK 293) cells are stably transfected with human TLR7 or TLR8 and an NF-kB-driven luciferase reporter vector (pNifty-Luciferase). As a control assay, normal Hek293 transfected with pNifty-Luc are used. Cells are cultured in DMEM supplemented with 2 mM L-glutamine, 10% heart inactivated FBS, 1% penicillin and streptomycin, 2 μg/ml puromycin (InvivoGen #ant-pr-5) and 5 μg/ml of blasticidin (Invitrogen #46-1120). Bright-Glo™ Luciferase assay buffer and substrate are supplied by Promega #E263B and #E264B (assay substrate and buffer respectively). 384 well clear-bottom plates are supplied by Greiner bio-one (#789163-G) and are GNF custom bar-coded plates.
(§2) Cells are plated at 25,000 cells/well in 384-well plates in a final volume of 50 μl of media. Cells are allowed to adhere to the plates after overnight (18 hours) culture at 37° C. 5% CO2. Serially diluted experimental and positive control compounds are then dispensed to each well and incubated for 7 hours at 37° C. 5% CO2. Cells stimulated with DMSO alone also serve as negative controls. After the incubation, 30 μl of the pre-mix assay buffer and substrate buffer are added to each well according to manufacturer's instructions. The luminescence signal is read on a CLIPR machine with an integration time of 20 seconds per plate.
(§3) Dose response curves are generated for each compound and EC50 values were determined as the concentration that gives 50% of the maximal signal.
(In a reporter assay the amount or activity of a reporter protein is the signal.)
The term EC50 denotes the midpoint of the concentration-response curve. `Nc1nc2ccccc2c2ccc(=O)[nH]c12` [Example 15, 5-aminobenzo[f][1,7]naphthyridin-3(4H)-one]: the 50% effective concentration (EC50) stood at 24.1 µM.

Staying with this assay, now noted: TLR-7 stimulation; read-out: Human TLR-7 EC50.
With `Cc1ccc2c(c1)nc(N)c1ncc(CCc3ccc4[nH]ccc4c3)cc12` [Example 44, 2-(2-(1H-indol-5-yl)ethyl)-8-methylbenzo[f][1,7]naphthyridin-5-amine], the EC50 was 0.107 µM.
The same measure, in the same setting: the same measure for `Cc1ccc2c(c1)nc(N)c1ncc(CCc3ccc(Oc4ccccc4)cc3)cc12` [Example 46, 8-methyl-2-(4-phenoxyphenethyl)benzo[f][1,7]naphthyridin-5-amine]: 0.347 µM; for `COC(=O)CCc1ccc(CCc2cnc3c(N)nc4cc(C)ccc4c3c2)cc1` [Example 61, methyl 3-(4-(2-(5-amino-8-methylbenzo[f][1,7]naphthyridin-2-yl)ethyl)phenyl)propanoate]: 0.582 µM.
The same measure, in the same setting: the same measure for `Cc1ccc2c(c1)nc(N)c1ncc(CCc3ccc(CCCO)cc3)cc12` [Example 62, 3-(4-(2-(5-amino-8-methylbenzo[f][1,7]naphthyridin-2-yl)ethyl)phenyl)propan-1-ol]: 0.035 µM.
On the same count and under the same terms, the same measure for `Cc1ccc2c(c1)nc(N)c1ncc(CCc3ccc(CCC(C)(C)O)cc3)cc12` [Example 63, 4-(4-(2-(5-amino-8-methylbenzo[f][1,7]naphthyridin-2-yl)ethyl)phenyl)-2-methylbutan-2-ol]: 0.024 µM; for `CCN1CCN(C(=O)c2ccc(CCc3cnc4c(N)nc5cc(C)ccc5c4c3)c(C)c2)CC1` [Example 126, (4-(2-(5-amino-8-methylbenzo[f][1,7]naphthyridin-2-yl)ethyl)-3-methylphenyl)(4-ethylpiperazin-1-yl)methanone]: 0.275 µM.
Turning to `CCCOC(=O)Oc1ccc(CCc2cnc3c(N)nc4cc(C)ccc4c3c2)cc1` [Example 138, 4-(2-(5-amino-8-methylbenzo[f][1,7]naphthyridin-2-yl)ethyl)phenyl propyl carbonate], the EC50 amounted to 0.213 µM.
Same read-out and setting: the value for `Cc1ccc2c(c1)nc(N)c1ncc(CCc3ccc(OCCN4CCOCC4)cc3C)cc12` [Example 147, 8-methyl-2-(2-methyl-4-(2-morpholinoethoxy)phenethyl)benzo[f][1,7]naphthyridin-5-amine] was 0.014 µM; that for `COc1ccc(CCc2cnc3c(N)nc4cc(C)ccc4c3c2)cc1OC` [Example 178, 2-(3,4-dimethoxyphenethyl)-8-methylbenzo[f][1,7]naphthyridin-5-amine] was 0.562 µM.

Another assay concerns the target T2, human TLR8 (Homo sapiens, UniProt Q9NR97).
T2 construct: expressed in transfected cells; host or cells: HEK 293
T2 sequence (Q9NR97 27-1041): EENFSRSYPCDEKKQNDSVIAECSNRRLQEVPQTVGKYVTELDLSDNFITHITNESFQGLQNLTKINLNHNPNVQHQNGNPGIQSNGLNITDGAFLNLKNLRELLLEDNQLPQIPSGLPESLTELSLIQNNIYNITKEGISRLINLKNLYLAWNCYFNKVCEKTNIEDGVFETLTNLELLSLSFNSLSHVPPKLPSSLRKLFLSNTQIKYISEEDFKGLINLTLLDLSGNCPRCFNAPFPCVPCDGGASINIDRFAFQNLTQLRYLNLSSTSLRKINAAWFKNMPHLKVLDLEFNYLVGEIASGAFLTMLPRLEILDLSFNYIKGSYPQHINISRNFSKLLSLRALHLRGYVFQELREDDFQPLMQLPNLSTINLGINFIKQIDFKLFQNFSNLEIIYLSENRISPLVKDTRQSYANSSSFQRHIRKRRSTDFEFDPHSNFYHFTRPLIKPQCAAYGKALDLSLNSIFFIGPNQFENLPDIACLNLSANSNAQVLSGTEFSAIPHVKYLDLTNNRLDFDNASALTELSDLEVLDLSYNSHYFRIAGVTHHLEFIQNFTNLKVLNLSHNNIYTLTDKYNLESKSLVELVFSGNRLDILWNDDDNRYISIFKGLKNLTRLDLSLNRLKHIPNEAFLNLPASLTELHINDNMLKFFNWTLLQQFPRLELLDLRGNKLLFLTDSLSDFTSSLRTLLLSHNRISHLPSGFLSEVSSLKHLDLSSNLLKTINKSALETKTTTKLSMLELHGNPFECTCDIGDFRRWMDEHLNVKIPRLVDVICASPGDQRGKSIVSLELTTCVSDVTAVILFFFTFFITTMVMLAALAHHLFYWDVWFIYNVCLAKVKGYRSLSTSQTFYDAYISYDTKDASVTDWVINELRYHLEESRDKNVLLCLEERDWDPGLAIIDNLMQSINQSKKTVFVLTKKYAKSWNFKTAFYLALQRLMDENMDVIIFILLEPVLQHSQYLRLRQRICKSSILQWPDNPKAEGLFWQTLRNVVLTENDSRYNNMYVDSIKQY
In words: Reporter gene assay, HEK293-TLR8 (NF-kB-driven luciferase). The conditions noted are these: TLR-8 stimulation; read-out: Human TLR-8 EC50. In kind it is cell-based. The method, then:
as §1, §2, §3
Turning to `Cc1ccc2c(c1)nc(N)c1ncc(CCc3ccc(CN4CCCC4)cc3)cc12` [Example 177, 8-methyl-2-(4-(pyrrolidin-1-ylmethyl)phenethyl)benzo[f][1,7]naphthyridin-5-amine], the EC50 was determined as 15 µM.
Still for that read-out and setting: the value for `Cc1ccc2c(c1)nc(N)c1ncc(CCc3ccc(C(C)NCCN(C)C)cc3)cc12` (centres unmarked) [Example 186, N^1-(1-(4-(2-(5-amino-8-methylbenzo[f][1,7]naphthyridin-2-yl)ethyl)phenyl)ethyl)-N^2,N^2-dimethylethane-1,2-diamine] was 11 µM.
Same read-out and setting: the same measure for `Cc1ccc2c(c1)nc(N)c1ncc(CCc3ccc(C(C)NCCC(=O)O)cc3)cc12` (centres unmarked) [Example 187, 3-(1-(4-(2-(5-amino-8-methylbenzo[f][1,7]naphthyridin-2-yl)ethyl)phenyl)ethylamino)propanoic acid]: 82 µM; for `Cc1ccc2c(c1)nc(N)c1ncc(CCc3ccc(C(C)N4CCN(C)CC4)cc3)cc12` (centres unmarked) [Example 188, 8-methyl-2-(4-(1-(4-methylpiperazin-1-yl)ethyl)phenethyl)benzo[f][1,7]naphthyridin-5-amine]: > 100 µM.
Consider `Cc1ccc2c(c1)nc(N)c1ncc(CCc3ccc(C(C)NC(C)CN(C)C)cc3)cc12` (centres unmarked) [Example 189, N^2-(1-(4-(2-(5-amino-8-methylbenzo[f][1,7]naphthyridin-2-yl)ethyl)phenyl)ethyl)-N^1,N^1-dimethylpropane-1,2-diamine], for which the EC50 was 6.2 µM.
On the same count and under the same terms, the value for `Cc1ccc2c(c1)nc(N)c1ncc(CCc3ccc(C(C)NCCc4ccncc4)cc3)cc12` (centres unmarked) [Example 190, 8-methyl-2-(4-(1-(2-(pyridin-4-yl)ethylamino)ethyl)phenethyl)benzo[f][1,7]naphthyridin-5-amine] was 4.3 µM; that for `CCN(CC)CCNC(C)c1ccc(CCc2cnc3c(N)nc4cc(C)ccc4c3c2)cc1` (centres unmarked) [Example 191, N^1-(1-(4-(2-(5-amino-8-methylbenzo[f][1,7]naphthyridin-2-yl)ethyl)phenyl)ethyl)-N^2,N^2-diethylethane-1,2-diamine] was 6 µM.
On the same count and under the same terms, the same measure for `Cc1ccc2c(c1)nc(N)c1ncc(CCc3ccc(C(C)N4CCC(C(=O)O)C4)cc3)cc12` (centres unmarked) [Example 193, 1-(1-(4-(2-(5-amino-8-methylbenzo[f][1,7]naphthyridin-2-yl)ethyl)phenyl)ethyl)pyrrolidine-3-carboxylic acid]: 24 µM; for `Cc1ccc2c(c1)nc(N)c1ncc(CCc3ccc(C(C)N4CCC(O)C4)cc3)cc12` (centres unmarked) [Example 195, 1-(1-(4-(2-(5-amino-8-methylbenzo[f][1,7]naphthyridin-2yl)ethyl)phenyl)ethyl)pyrrolidin-3-ol]: 5.3 µM.
On the same count and under the same terms, the same measure for `Cc1ccc2c(c1)nc(N)c1ncc(CCc3ccc(C(C)(C)N)cc3)cc12` [Example 196, 2-(4-(2-aminopropan-2-yl)phenethyl)-8-methylbenzo[f][1,7]naphthyridin-5-amine]: 2.6 µM.
